This note sets out measurements from US5198419A, “Formulated medicines for enhancing the efficacy of beta-lactam antibiotics in prophylaxis and treatment against infectious disease due to pathogenic bacteria” (Immuno Japan Inc., priority 1989, dated 1993).

Test [1] has as its system Staphylococcus aureus 209P. Put plainly: Example 9: time-schedule of lactoferrin administration and efficacy of amoxicillin. It is filed as in vivo, mice, ddY. As to the method:
(§1) For ED50 values, a range of amounts of antibiotics is given in the examples (e.g., penicillin G: 0.4, 0.2, 0.1, 0.05 mg/mouse). To calculate the ED50, groups of mice in the monotherapy groups and groups of mice in the combined therapy groups received the indicated amount of antibiotic (e.g., one group received 0.4 mg/mouse of penicillin G, one group received 0.2 mg/mouse of penicillin G, one group received 0.1 mg/mouse of penicillin G, one group received 0.05 mg/mouse of penicillin G).
The effect of time-schedule of lactoferrin administration on the potentiation of antibiotic efficacy was examined using an experimental model similar to Example 1. Male ddY mice (n=10), five weeks old, weighing an average of 21.9 g, were used in this experiment. On day 0 all the mice were intraperitoneally injected with 1.2×10^5 CFU/mouse of Staphylococcus aureus 209P. Amoxicillin ([…], 0.625 mg/mouse) was orally given one hour after the injection.

Test [2] relates to Str. epidermids FT. The test can be described thus: Example 10: experimental infection in mice, cefazolin with or without lactoferrin. It is filed as in vivo. Particulars: for ED50: 1000 MLD i.p. The procedure: as §1
(§2) The potentiation of antibiotic efficacy by lactoferrin was examined using an infection model similar to Example 1. The antibiotics and lactoferrin were administered immediately after the injection (see Table 8). […] Lactoferrin (0.4 mg/mouse) potentiates the efficacies of the four beta-lactam antibiotics used: penicillin G against Streptococcus pyogenes infection was potentiated by 4.6 fold, cefazolin against S. epidermidis by 3.1 fold, methicillin against Diplococcus pneumoniae by 3.7 fold, and cloxacillin against Pseudomonas aeruginosa by 3.0 fold. Therefore, lactoferrin potentiates the efficacy of beta-lactam antibiotics against diseases caused by both gram-positive and gram-negative pathogenic bacteria.

Test [3] has as its system Klebsiella pneumoniae strain 3K25. Put plainly: Example 8: dose-response relationship of potentiation of cefpodoxime efficacy by oral lactoferrin. The test is classed as in vivo, mice, ddY. The procedure: as §1
The dose-response relationship of the potentiation of the antibiotic efficacy by lactoferrin was determined using the same experimental infection system as described in Example 1. Male ddY mice, five weeks of age, weighing approximate 20.3 g, were randomly allocated into groups (n=10); the first group was assigned to the cefpodoxime control (5 mg/mouse). The mice were intraperitoneally injected with pneumobacillus, Klebsiella pneumoniae strain 3K25, 3×10^5 per mouse. One hour after the injection, the antibiotic cefpodoxime (1, 0.5, 0.25 and 0.125 mg/mouse) was orally given in 0.2 ml of physiological saline.

The test system is the same in test [4]. Put plainly: Example 2: experimental infection in mice, cefpodoxime with or without apolactoferrin. It is filed as in vivo, strain ICR. Particulars: for ED50: p.o. 1 h after 5×10^5 CFU/mouse. As to the method: as §1
Sixty male mice, strain ICR, five weeks of age, weighing 19.3±1.1 g (mean body weight±the standard deviation) were randomly allocated into ten groups (n=6), and intraperitoneally injected with pneumobacilli, Klebsiella pneumoniae strain 3K25, 5×10^5 CFU/mouse. One hour after the injection, the first group was orally given 0.2 ml of physiological saline, the second group orally given iron free apolactoferrin (0.4 mg) in 0.2 ml of saline, the third through the sixth groups were orally given cefpodoxime (4, 2, 1, and 0.5 mg/mouse) in 0.2 ml saline, and the seventh through the tenth groups orally given the admixture of cefpodoxime (4, 2, 1, and 0.5 mg/mouse) and apolactoferrin (0.4 mg) in 0.2 ml of saline. Mice were fed ad libitum and observed for a week under the same conditions as described in Example 1.

Test [5] shares this test system. Put plainly: Example 5: experimentally infected fed and fasted mice, cefpodoxime with or without native lactoferrin. The test is classed as in vivo, strain ICR. The procedure:
as §1
Male mice, strain ICR, five weeks old, weighing an average of 21.6 g, were randomly allocated into sixteen groups (n =6). During the next 24 hours, eight groups were allowed free access to diet and water, while the other eight groups were fasted overnight. On the next day, all the mice were injected with 1.4×10^6 CFU/mouse of Klebsiella pneumoniae strain 3K25. The minimal lethal dose of this bacterium is […], and thus the injected dose was 1,000 times greater than the minimal lethal dose. Immediately after the injection, the fed groups were orally given cefpodoxime (10, 5, 2.5, and 1.25 mg/mouse) simultaneously with or without native lactoferrin (0.2 mg/mouse). The fasted groups also were orally given cefpodoxime (10, 5, 2.5, and 1.25 mg/mouse) simultaneously with or without native lactoferrin (0.2 mg/mouse).

Test [6] has the same test system. The test can be described thus: Example 1: experimental infection in mice, cefpodoxime with or without native lactoferrin. The test is classed as in vivo, strain ICR. As to the method:
as §1
Sixty male mice, strain ICR, four weeks of age, body weight 19±1.0 g (mean±the standard deviation) were randomly divided into ten groups (n=6); the first group was assigned to the untreated control, the second group to the lactoferrin treated control group, the third through the sixth groups to the cephalosporin treated controls, and the seventh through the tenth groups to the combined treatment group of cephalosporin and lactoferrin. The mice were intraperitoneally injected with pneumobacillus, Klebsiella pneumoniae strain 3K25, 5×10^6 colony forming units (CFU) per mouse. The antibiotics used were orally active cephalosporin or cefpodoxime, and the bovine lactoferrin was the native one derived from cheese whey with 28.5% iron-saturation. One hour after the injection, the untreated control was orally given 0.2 ml of physiological saline, the second group orally given lactoferrin (0.4 mg/mouse), the third through the sixth groups were orally given cefpodoxime (10, 5, 2.5 and 1.25 mg/mouse) in 0.2 ml of physiological saline, the seventh through the tenth groups orally given the admixture of cefpodoxime (5, 2.5, 1.25, and 0.625 mg/mouse) together with lactoferrin (0.4 mg/mouse) in 0.2 ml of the saline. All the mice were housed in an animal room, allowed free access to commercial pellet diet and water, and observed for one week.

The subject of test [7] is Escherichia coli #11. Put plainly: Example 7: experimental infection in mice, cephalexin with or without native lactoferrin. The test is classed as in vivo, strain ddY. As to conditions: po, 168 h, 1.7 × 10^6 CFU/mouse. As to the method: as §1
Male mice, strain ddY, five weeks old, were randomly allocated into groups (n=10), and were intraperitoneally injected with Proteus mirabilis GN79 (1.3×10^6 CFU/mouse) or with Escherichia coli #11 (1.7×10^6 CFU/mouse) or with Klebsiella pneumoniae 3K25 (1.5×10^6 CFU/mouse). The doses are 1,000 times greater than the minimum lethal dose. Immediately after the injection, the first eight groups were orally given ampicillin, the second eight groups were orally given cephalexin, and the third eight groups were orally given cefaclor, respectively, each simultaneously with or without native lactoferrin (1 mg/mouse) in 0.2 ml of distilled water (see Table 7). All the mice were fed ad libitum and observed for one week under the same conditions as described in Example 1.

Test [8] concerns Pseudomonas aeruginosa E8. Put plainly: Example 10: experimental infection in mice, cloxacillin with or without lactoferrin. Particulars: for ED50: 10 MLD i.p. The test is classed as in vivo. As to the method:
as §1, §2

Test [9] has as its system Diplococcus pneumoniae Ch. The test can be described thus: Example 10: experimental infection in mice, methicillin with or without lactoferrin. The test is classed as in vivo. Particulars: for ED50: 100 MLD i.p. The procedure:
as §1, §2

Test [10] relates to Streptococcus pyogenes #59. Put plainly: Example 10: experimental infection in mice, penicillin G with or without lactoferrin. The test is classed as in vivo. As to conditions: for ED50: 1000 MLD i.p. As to the method:
as §1, §2

[11] abbreviates: cefazolin with lactoferrin (0.4 mg/mouse).
[12] abbreviates: cloxacillin with lactoferrin (0.4 mg/mouse).
Setting [13] is: methicillin with lactoferrin (0.4 mg/mouse).
The mark [14] stands for this setting: penicillin G with lactoferrin (0.4 mg/mouse).

For `CC1(C)S[C@@H]2[C@H](NC(=O)[C@H](N)c3ccc(O)cc3)C(=O)N2[C@H]1C(=O)O` [amoxicillin], the ED50 was determined as 2.46 mg/mouse in test [1] (amoxicillin control, no lactoferrin); 0.78 mg/mouse in test [1] (amoxicillin, lactoferrin (0.5 mg/mouse) dosed +3 (hr)); 2.48 mg/mouse in [1] (amoxicillin, lactoferrin (0.5 mg/mouse) dosed +12 (hr)); 1.39 mg/mouse in test [1] (amoxicillin, lactoferrin (0.5 mg/mouse) dosed -1 (day)); 2.46 mg/mouse in [1] (amoxicillin, lactoferrin (0.5 mg/mouse) dosed -2 (day)); 2.46 mg/mouse in [1] (amoxicillin, lactoferrin (0.5 mg/mouse) dosed -3 (day)). For the same compound, the ED50 in test [1] (amoxicillin, lactoferrin (0.5 mg/mouse) dosed -5 (day)) is given as 2.14 mg/mouse; in test [1] (amoxicillin, lactoferrin (0.5 mg/mouse) dosed -6 (hr)) it was 0.40 mg/mouse; in test [1] (amoxicillin, lactoferrin (0.5 mg/mouse) dosed -12 (hr)), 0.55 mg/mouse; in test [1] (amoxicillin, lactoferrin (0.5 mg/mouse) dosed at 0), 0.40 mg/mouse.
For `Cc1nnc(SCC2=C(C(=O)O)N3C(=O)[C@@H](NC(=O)Cn4cnnn4)[C@H]3SC2)s1` [cefazolin], the ED50 was found to be 0.152 mg/mouse in [2] (cefazolin control) and 0.048 mg/mouse in [2] (setting [11]). Moreover, the “potentiation of efficacy by lactoferrin” value in test [2] (setting [11]) was 3.1 fold.
For the compound `COCC1=C(C(=O)O)N2C(=O)[C@@H](NC(=O)/C(=N\OC)c3csc(N)n3)[C@H]2SC1` [cefpodoxime], the ED50 in [3] (cefpodoxime with lactoferrin 0.00 mg/mouse) worked out at 0.473 mg/mouse; in [3] (cefpodoxime with lactoferrin 0.005 mg/mouse) it was 0.382 mg/mouse; in test [3] (cefpodoxime with lactoferrin 0.05 mg/mouse), 0.104 mg/mouse; in test [3] (cefpodoxime with lactoferrin 0.5 mg/mouse) it was 0.104 mg/mouse; in [3] (cefpodoxime with lactoferrin 5.0 mg/mouse), 0.104 mg/mouse; in [3] (cefpodoxime with lactoferrin 50.0 mg/mouse), 0.104 mg/mouse. Further, the ED50 in test [4] (cefpodoxime combined therapy with apolactoferrin (0.4 mg), range 0.19-0.33 mg printed) was 0.25 mg/mouse; in test [4] (cefpodoxime monotherapy, range 0.74-1.32 mg/mouse printed) it was 0.99 mg/mouse; in [5] (fasted, cefpodoxime (antibiotic) alone) it was 39.40 (27.15-56.15) mg/mouse; in test [5] (fasted, cefpodoxime admixture with lactoferrin (0.2 mg/mouse)) it was 7.80 (5.65-10.83) mg/mouse; in test [5] (fed, cefpodoxime (antibiotic) alone), 15.65 (11.45-21.30) mg/mouse; in [5] (fed, cefpodoxime admixture with lactoferrin (0.2 mg/mouse)), 4.90 (3.65-6.60) mg/mouse. The ED50 is on record as 7.93 mg/mouse in test [6] (cefpodoxime alone, p.o. 1 h after i.p. injection of 5×10^6 CFU/mouse, 95% range not named (6.3-10.0 mg/mouse printed)) and 1.25 mg/mouse in [6] (cefpodoxime with native lactoferrin (0.4 mg/mouse), p.o. 1 h after injection of 5×10^6 CFU/mouse, range 0.92-1.70 mg/mouse printed). Moreover, in test [4] (cefpodoxime with apolactoferrin, combined therapy group), the recovery of mice result is “all the mice recovered”. Also, the “life span versus untreated and lactoferrin controls” value is “significantly prolonged” in test [6] (cefpodoxime treated group); “significantly prolonged” in test [6] (combined treatment groups of cefpodoxime and lactoferrin).
In the case of `CC1=C(C(=O)O)N2C(=O)[C@@H](NC(=O)[C@H](N)c3ccccc3)[C@H]2SC1` [cephalexin], the ED50 is 216 mg/kg in test [7] (cephalexin alone) and 34.8 mg/kg in test [7] (cephalexin with lactoferrin (1 mg/mouse)).
For the compound `Cc1onc(-c2ccccc2Cl)c1C(=O)N[C@@H]1C(=O)N2[C@@H]1SC(C)(C)[C@@H]2C(=O)O` [cloxacillin], the ED50 in test [8] (cloxacillin control) was 3.16 mg/mouse. Further, in test [8] (setting [12]), the “potentiation of efficacy by lactoferrin” value is recorded as 3.0 fold and the ED50 worked out at 1.06 mg/mouse.
Turning to `COc1cccc(OC)c1C(=O)N[C@@H]1C(=O)N2[C@@H]1SC(C)(C)[C@@H]2C(=O)O` [methicillin], the ED50 in [9] (methicillin control) is 0.227 mg/mouse. For the same compound, in test [9] (setting [13]), the “potentiation of efficacy by lactoferrin” value is recorded as 3.7 fold and the ED50 turned out to be 0.061 mg/mouse.
As to `CC1(C)S[C@@H]2[C@H](NC(=O)Cc3ccccc3)C(=O)N2[C@H]1C(=O)O` [penicillin G], the ED50 in [10] (penicillin G control) stood at 0.106 mg/mouse. In [10] (setting [14]), the “potentiation of efficacy by lactoferrin” value worked out at 4.6 fold and the ED50 was determined as 0.023 mg/mouse.
